Data: ChEMBL document CHEMBL1201862, “PubChem BioAssay data set” (2004)
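Growth conditions: 96-well plates. Treatment: test compound, 48 hours, 5 concentrations. Analysis: linear interpolation between bracketing concentrations; unreached endpoints set to highest concentration. Abbreviation: GI50, concentration required for 50% inhibition of growth.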 Calls of active or inactive are those of the source. Cut-off read from the data, not from the text of the source: active = GI50 up to about 1.1 µM and inactive = higher.

Columns and labels:
Experiment in all cases: growth of human tumour cells (NCI), 48 h
RPMI-8226 = test system: RPMI-8226
SNB-75 = test system: SNB-75
K562 = test system: K562
HCT-116 = test system: HCT-116
OVCAR-4 = test system: OVCAR-4
T47D = test system: T47D
MDA-MB-435 = test system: MDA-MB-435
NCI-H460 = test system: NCI-H460
ACHN = test system: ACHN
OVCAR-5 = test system: OVCAR-5
SF-268 = test system: SF-268
RXF 393 = test system: RXF 393
SF-539 = test system: SF-539
MDA-N = test system: MDA-N
LOX IMVI = test system: LOX IMVI
OVCAR-3 = test system: OVCAR-3
HOP-62 = test system: HOP-62
SK-OV-3 = test system: SK-OV-3
HCC 2998 = test system: HCC 2998
DU-145 = test system: DU-145

Measured: GI50

C/C1=C\CC/C(C)=C/C=C(/C(C)C)CC/C(C(=O)O)=C/CC1 [CROTOCEMBRANEIC ACID]
inactive: RPMI-8226 22.8 µM | SNB-75 77.3 µM | K562 33.9 µM | HCT-116 40.3 µM | OVCAR-4 55.1 µM | T47D 23.2 µM | MDA-MB-435 44.4 µM | NCI-H460 34.8 µM | ACHN 34.5 µM | OVCAR-5 > 100 µM | SF-268 72.8 µM | RXF 393 29.4 µM | SF-539 37.9 µM | MDA-N 59 µM | LOX IMVI 54.8 µM | OVCAR-3 22.9 µM | HOP-62 29.6 µM | SK-OV-3 35.5 µM | HCC 2998 37.6 µM | DU-145 61.2 µM
